Results published in patent US7659271B2, “Pyrimidine compound having dibenzylamine structure and medicament comprising the same” (Kowa Company, Ltd., priority 2007, dated 2010).

Target: T1, CETP (Homo sapiens, UniProt P11597)
T1 construct: The CETP activity in this plasma was measured with Cholesteryl Ester Transfer Protein Activity kit; from tissue; host or cells: human plasma
T1 sequence (P11597 18-493): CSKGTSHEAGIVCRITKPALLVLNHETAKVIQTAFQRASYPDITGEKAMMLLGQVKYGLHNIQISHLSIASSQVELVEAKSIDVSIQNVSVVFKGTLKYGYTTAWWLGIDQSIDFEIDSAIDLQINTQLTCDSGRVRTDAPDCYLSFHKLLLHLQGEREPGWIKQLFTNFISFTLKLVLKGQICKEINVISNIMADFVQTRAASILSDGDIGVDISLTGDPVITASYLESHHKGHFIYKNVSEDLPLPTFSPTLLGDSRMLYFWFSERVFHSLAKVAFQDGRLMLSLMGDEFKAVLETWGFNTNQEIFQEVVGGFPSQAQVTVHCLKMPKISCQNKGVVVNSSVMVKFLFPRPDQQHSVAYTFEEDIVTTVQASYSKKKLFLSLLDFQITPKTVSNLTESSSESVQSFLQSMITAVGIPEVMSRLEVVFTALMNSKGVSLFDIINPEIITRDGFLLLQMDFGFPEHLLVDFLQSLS
Assay: Measurement of CETP inhibitory action in human plasma
Assay type: biochemical
Conditions: incubated with compound 37° C. 4 hours, Roar Biomedical CETP Activity kit, read-out: IC50 (concentration inhibiting the CETP activity by 50%)
Protocol: A solution obtained by dissolving an exemplary compound in polyethylene glycol/N-methyl-2-pyrrolidone (vol/vol=1/1) was added to human plasma, and the mixture was incubated in an incubator at 37° C. for 4 hours. The CETP activity in this plasma was measured with Cholesteryl Ester Transfer Protein Activity kit (Roar Biomedical, catalog No.: RB-CETP). Specifically, to each well of a 96-well plate, 95 μL of a buffer (10 mM Tris, 150 mM NaCl, 2 mM EDTA, pH 7.4), 2 μL of Donor particle and 2 μL of Acceptor particle were added, 1 μL of the human plasma after the incubation was added to the mixture, and the mixture was incubated in an incubator at 37° C. for 2 hours. After completion of the incubation, fluorescence intensity (FLU) was measured with a fluorescence plate reader (excitation wavelength: 465 nm, emission wavelength: 535 nm). In accordance with the following equation 1, the CETP activity (% of control) was obtained for the compounds of the examples for two or more concentrations. CETP activity (% of control)=(Sample FLU−Blank FLU)×100/(Control FLU−Blank FLU) (Equation 1)
In the equation, the terms have the following meanings: […]
Blank FLU: Fluorescence intensity of sample not added with plasma
Control FLU: Fluorescence intensity of plasma not added with solution of compound
Sample FLU: Fluorescence intensity of plasma added with solution of compound
A value obtained by subtracting the value of the CETP activity from 100 was defined as the CETP inhibitory rate of each exemplary compound, and a concentration inhibiting the CETP activity by 50% (IC50) was calculated for each exemplary compound from the values of the CETP inhibitory rate at two or more concentrations.

SMILES	IC50 [µM]
CCN(CC1CCCC1)c1ccc(OC)cc1CN(c1ncc(OCCS(C)(=O)=O)cn1)C(C)c1cc(C(F)(F)F)cc(C(F)(F)F)c1 (centres unmarked) [Example 5, N-{1-[3,5-bis(trifluoromethyl)phenyl]ethyl}-N-({2-[(cyclopentylmethyl)(ethyl)amino]-5-methoxyphenyl}methyl)-5-[2-(methylsulfonyl)ethoxy]pyrimidin-2-amine]	0.05
CCN(CC1CCCC1)c1ccc(Br)cc1CN(c1ncc(OCCS(C)(=O)=O)cn1)C(C)c1cc(C(F)(F)F)cc(C(F)(F)F)c1 (centres unmarked) [Example 30, N-{1-[3,5-bis(trifluoromethyl)phenyl]ethyl}-N-({5-bromo-2-[(cyclopentylmethyl)(ethyl)amino]phenyl}methyl)-5-[2-(methylsulfonyl)ethoxy]pyrimidin-2-amine]	0.045
CCN(CC1CCCC1)c1cc(F)c(F)cc1CN(c1ncc(OCCS(C)(=O)=O)cn1)C(C)c1cc(C(F)(F)F)cc(C(F)(F)F)c1 (centres unmarked) [Example 22, N-{1-[3,5-bis(trifluoromethyl)phenyl]ethyl}-N-({2-[(cyclopentylmethyl)(ethyl)amino]-4,5-difluorophenyl}methyl)-5-[2-(methylsulfonyl)ethoxy]pyrimidin-2-amine]	0.5
CCN(CC1CCCC1)c1cc(C(F)(F)F)ccc1CN(c1ncc(OCC[S+](C)[O-])cn1)C(C)c1cc(C(F)(F)F)cc(C(F)(F)F)c1 (centres unmarked) [Example 15, N-{1-[3,5-bis(trifluoromethyl)phenyl]ethyl}-N-({2-[(cyclopentylmethyl)(ethyl)amino]-4-(trifluoromethyl)phenyl}methyl)-5-[2-(methylsulfinyl)ethoxy]pyrimidin-2-amine]	0.3
CCN(CC1CCCC1)c1ccc(C(F)(F)F)cc1CN(c1ncc(OCCS(C)(=O)=O)cn1)C(C)c1cc(C#N)cc(C(F)(F)F)c1 (centres unmarked) [Example 32, 3-{1-[({2-[(cyclopentylmethyl)(ethyl)amino]-5-trifluoromethylphenyl}methyl){5-[2-(methylsulfonyl)ethoxy]pyrimidin-2-yl}amino]ethyl}-5-(trifluoromethyl)benzonitrile]	0.03

The remaining molecules from weak to strong by IC50, led by results:

IC50 [µM]	SMILES
0.4	CC(c1cc(C(F)(F)F)cc(C(F)(F)F)c1)N(Cc1cc(F)cc(F)c1N(CC1CC1)CC1CC1)c1ncc(OCCS(C)(=O)=O)cn1 (centres unmarked) [Example 47, N-({2-[bis(cyclopropylmethyl)amino]-3,5-difluorophenyl}methyl)-N-{1-[3,5-bis(trifluoromethyl)phenyl]ethyl}-5-[2-(methylsulfonyl)ethoxy]pyrimidin-2-amine]
0.3	CCN(CC1CCCC1)c1cc(Cl)ccc1CN(c1ncc(OCCS(C)(=O)=O)cn1)C(C)c1cc(C(F)(F)F)cc(C(F)(F)F)c1 (centres unmarked) [Example 24, N-{1-[3,5-bis(trifluoromethyl)phenyl]ethyl}-N-({4-chloro-2-[(cyclopentylmethyl)(ethyl)amino]phenyl}methyl)-5-[2-(methylsulfonyl)ethoxy]pyrimidin-2-amine]
0.25	CCN(CC1CCCC1)c1cc(F)ccc1CN(c1ncc(OCCS(C)(=O)=O)cn1)C(C)c1cc(C(F)(F)F)cc(C(F)(F)F)c1 (centres unmarked) [Example 11, N-{1-[3,5-bis(trifluoromethyl)phenyl]ethyl}-N-({2-[(cyclopentylmethyl)(ethyl)amino]-4-fluorophenyl}methyl)-5-[2-(methylsulfonyl)ethoxy]pyrimidin-2-amine]
